Assay results: patent publication US20170209447A1, “Use of PNP Inhibitor to Treat Relapse of Malignancy after Hematopoietic Stem Cell Transplant” (Nitor Therapeutics, priority 2014, published 2017)
Read-outs that look alike come from different tables or passages of the source.

Key:
[1] = molecular target: T1, human TLR4 (Homo sapiens, UniProt O00206); assay: TLR ligand screening: NF-κB SEAP reporter in HEK293 cells expressing TLR4; assay type: cell-based; conditions: one concentration: Guanosine 100 uM, NTR001 10 uM, Inosine 100 uM; HEK293; triplicate; FIG. 2
T1 construct: expressed in transfected cells; host or cells: HEK293
T1 sequence (O00206 24-839): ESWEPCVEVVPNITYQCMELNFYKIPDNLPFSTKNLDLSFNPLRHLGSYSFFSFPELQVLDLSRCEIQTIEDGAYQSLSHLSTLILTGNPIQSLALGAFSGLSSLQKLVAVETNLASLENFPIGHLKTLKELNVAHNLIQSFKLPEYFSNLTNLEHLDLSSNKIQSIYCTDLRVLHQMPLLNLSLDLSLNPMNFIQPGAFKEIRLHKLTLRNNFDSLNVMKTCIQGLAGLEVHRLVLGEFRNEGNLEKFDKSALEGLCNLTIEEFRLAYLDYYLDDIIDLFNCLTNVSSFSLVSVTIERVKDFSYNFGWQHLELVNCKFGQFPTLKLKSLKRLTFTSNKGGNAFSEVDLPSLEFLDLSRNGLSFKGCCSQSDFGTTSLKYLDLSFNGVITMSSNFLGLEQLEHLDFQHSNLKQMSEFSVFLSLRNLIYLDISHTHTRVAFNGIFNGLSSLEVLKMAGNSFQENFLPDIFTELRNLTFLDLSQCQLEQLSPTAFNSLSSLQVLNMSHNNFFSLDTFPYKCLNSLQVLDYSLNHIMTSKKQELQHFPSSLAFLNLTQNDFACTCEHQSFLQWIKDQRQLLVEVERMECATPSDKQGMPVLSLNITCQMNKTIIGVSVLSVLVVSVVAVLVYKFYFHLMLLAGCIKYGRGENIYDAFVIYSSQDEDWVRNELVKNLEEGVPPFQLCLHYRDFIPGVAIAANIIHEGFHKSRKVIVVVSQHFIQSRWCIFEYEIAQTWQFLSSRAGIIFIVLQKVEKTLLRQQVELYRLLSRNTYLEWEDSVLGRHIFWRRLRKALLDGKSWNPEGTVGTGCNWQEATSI
T1 sequence (Q9Y6Y9 17-160 partner limits assumed): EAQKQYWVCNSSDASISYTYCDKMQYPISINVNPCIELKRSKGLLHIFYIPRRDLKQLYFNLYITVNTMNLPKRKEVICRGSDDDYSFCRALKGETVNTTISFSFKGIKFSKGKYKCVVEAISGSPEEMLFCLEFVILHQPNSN
Description: (§1) Toll-Like Receptor (TLR) Ligand Screening: In-vitro Activity of the PNPi, Guanosine and Inosine on Seven Different Human TLRs (TLR2, 3, 4, 5, 7, 8 and 9) as a Potential Agonist.
(§2) Method: TLR stimulation is tested by assessing NF-KB activation in HEK293 cells expressing a given TLR. The Secreted Embryonic Alkaline Phosphatase (SEAP) reporter is under the control of a promoter inducible by the transcription factor NF-κB.
(§3) This reporter gene allows the monitoring of signaling through the TLR, based on the activation of NF-κB. The compounds are evaluated at one concentration and compared to control ligands. This step is performed in triplicate.

[2] = molecular target: T2, human TLR5 (Homo sapiens, UniProt O60602); assay: TLR ligand screening: NF-κB SEAP reporter in HEK293 cells expressing TLR5; assay type: cell-based; conditions: one concentration: NTR001 10 uM, Inosine 100 uM, triplicate, FIG. 2
T2 construct: expressed in transfected cells; host or cells: HEK293
T2 sequence (O60602 21-858): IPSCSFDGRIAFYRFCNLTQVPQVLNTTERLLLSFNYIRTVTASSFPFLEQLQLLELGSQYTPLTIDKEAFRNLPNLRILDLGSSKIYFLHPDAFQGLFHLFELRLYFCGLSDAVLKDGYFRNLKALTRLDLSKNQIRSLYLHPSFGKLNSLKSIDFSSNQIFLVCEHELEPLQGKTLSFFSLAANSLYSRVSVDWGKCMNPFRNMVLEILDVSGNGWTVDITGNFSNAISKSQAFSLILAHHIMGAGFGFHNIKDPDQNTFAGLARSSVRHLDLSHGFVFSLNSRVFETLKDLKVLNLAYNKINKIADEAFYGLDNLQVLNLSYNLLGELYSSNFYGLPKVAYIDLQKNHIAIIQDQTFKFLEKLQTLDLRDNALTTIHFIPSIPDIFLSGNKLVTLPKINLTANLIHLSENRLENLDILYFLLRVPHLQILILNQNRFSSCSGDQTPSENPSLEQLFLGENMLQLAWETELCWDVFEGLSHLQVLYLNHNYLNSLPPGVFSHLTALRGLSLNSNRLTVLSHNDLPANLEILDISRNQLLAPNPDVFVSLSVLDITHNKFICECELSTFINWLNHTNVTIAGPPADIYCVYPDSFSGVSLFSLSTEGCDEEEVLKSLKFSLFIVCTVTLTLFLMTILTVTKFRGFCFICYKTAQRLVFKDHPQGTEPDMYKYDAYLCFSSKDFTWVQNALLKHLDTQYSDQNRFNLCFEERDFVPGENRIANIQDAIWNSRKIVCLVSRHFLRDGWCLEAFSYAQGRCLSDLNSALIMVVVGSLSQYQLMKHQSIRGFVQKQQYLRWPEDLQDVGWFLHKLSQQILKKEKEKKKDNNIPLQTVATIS
Description: as §1, §2, §3

[3] = molecular target: T3, human TLR9 (Homo sapiens, UniProt Q9NR96); assay: TLR ligand screening: NF-κB SEAP reporter in HEK293 cells expressing TLR9; assay type: cell-based; conditions: one concentration: NTR001 10 uM, Inosine 100 uM, triplicate, FIG. 2
T3 construct: expressed in transfected cells; host or cells: HEK293
T3 sequence (Q9NR96 26-1032): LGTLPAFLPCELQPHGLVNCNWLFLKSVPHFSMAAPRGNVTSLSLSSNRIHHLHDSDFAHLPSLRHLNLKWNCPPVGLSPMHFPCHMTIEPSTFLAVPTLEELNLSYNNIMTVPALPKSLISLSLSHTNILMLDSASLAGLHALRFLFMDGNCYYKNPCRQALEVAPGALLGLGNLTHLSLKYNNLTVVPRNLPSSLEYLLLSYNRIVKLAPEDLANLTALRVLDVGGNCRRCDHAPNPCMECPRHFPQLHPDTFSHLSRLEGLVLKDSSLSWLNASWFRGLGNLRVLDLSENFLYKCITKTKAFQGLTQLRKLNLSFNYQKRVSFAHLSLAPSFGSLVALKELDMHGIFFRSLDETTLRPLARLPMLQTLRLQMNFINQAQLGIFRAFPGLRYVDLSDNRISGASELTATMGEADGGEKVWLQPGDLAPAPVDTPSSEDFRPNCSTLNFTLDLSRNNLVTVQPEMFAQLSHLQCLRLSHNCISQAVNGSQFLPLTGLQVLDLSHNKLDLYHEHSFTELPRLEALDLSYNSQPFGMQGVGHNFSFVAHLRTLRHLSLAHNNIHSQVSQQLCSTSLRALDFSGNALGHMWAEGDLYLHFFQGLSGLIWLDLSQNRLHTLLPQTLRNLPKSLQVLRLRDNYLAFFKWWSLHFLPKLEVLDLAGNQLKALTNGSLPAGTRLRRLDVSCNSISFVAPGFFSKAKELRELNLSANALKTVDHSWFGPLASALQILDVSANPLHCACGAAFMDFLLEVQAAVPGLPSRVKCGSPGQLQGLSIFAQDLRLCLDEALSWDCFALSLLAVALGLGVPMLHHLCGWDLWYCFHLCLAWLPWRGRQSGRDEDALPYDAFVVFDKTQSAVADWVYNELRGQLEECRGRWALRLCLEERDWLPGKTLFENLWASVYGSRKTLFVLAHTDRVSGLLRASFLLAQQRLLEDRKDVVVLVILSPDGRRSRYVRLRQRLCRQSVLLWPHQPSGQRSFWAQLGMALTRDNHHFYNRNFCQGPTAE
Description: as §1, §2, §3

[4] = molecular target: T4, human TLR3 (Homo sapiens, UniProt O15455); assay: TLR ligand screening: NF-κB SEAP reporter in HEK293 cells expressing TLR3; assay type: cell-based; conditions: one concentration: NTR001 10 uM, Inosine 100 uM, triplicate, FIG. 2
T4 construct: expressed in transfected cells; host or cells: HEK293
T4 sequence (O15455 24-904): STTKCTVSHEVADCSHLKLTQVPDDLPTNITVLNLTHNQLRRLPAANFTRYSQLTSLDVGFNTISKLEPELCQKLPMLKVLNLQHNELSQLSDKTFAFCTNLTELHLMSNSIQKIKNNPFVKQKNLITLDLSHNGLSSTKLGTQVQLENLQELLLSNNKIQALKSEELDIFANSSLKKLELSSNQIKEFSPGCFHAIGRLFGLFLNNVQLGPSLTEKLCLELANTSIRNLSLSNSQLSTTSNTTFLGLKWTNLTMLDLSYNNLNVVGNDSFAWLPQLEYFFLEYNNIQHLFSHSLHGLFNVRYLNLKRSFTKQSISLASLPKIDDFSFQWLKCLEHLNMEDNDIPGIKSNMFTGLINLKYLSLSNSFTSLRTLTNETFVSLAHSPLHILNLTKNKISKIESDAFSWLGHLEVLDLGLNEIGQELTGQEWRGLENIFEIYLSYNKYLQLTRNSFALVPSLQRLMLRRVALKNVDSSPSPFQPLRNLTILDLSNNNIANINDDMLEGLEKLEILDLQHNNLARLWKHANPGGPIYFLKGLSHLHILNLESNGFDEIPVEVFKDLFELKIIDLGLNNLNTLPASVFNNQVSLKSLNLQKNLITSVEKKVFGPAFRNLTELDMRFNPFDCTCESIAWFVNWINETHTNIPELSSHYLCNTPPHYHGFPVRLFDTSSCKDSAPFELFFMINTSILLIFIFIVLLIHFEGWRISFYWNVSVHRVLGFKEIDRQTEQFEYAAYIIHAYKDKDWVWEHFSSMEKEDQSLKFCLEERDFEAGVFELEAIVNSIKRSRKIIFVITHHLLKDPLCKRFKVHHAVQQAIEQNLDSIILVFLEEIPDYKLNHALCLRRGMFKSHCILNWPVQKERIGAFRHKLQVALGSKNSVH
Description: as §1, §2, §3

[5] = test system: L. monocytogenes (ATCC Strain35152, hemolytic substrain); conditions: 30 mg/kg PO or IP, or 2 mg/kg drinking water; 1×10^6 CFU i.v.; FIGS. 7 and 9
[6] = test system: B16 tumors; assay: PNPi as anticancer agent in mouse melanoma model; assay type: in vivo, C57BL/6 mice
Description: Evaluation of PNPi as Anticancer Agent in Mouse Melanoma Model.
Treatment with the NTR001 was initiated on day 6 after injection of tumor cells. Tumor volume and survival were recorded every 3-4 days.

[7] = test system: B16 tumors; conditions: NTR001 60 mg/kg PO; CTLA4-Ab 100, 50, 50 ug IP; days 0, 3 and 6; FIG. 11

Compound	stimulatory effect on human TLR4 (NF-κB activation) [1]	stimulatory effect on human TLR5 (NF-κB activation) [2]	stimulatory effect on human TLR9 (NF-κB activation) [3]	stimulatory effect on human TLR3 (NF-κB activation) [4]	weight loss [5]	survival ([6]; NTR001 as single agent (30 mg/kg PO week on/off; 5 mg/kg drinking water 28 days), FIG. 6)	tumor volume ([6]; NTR001 treatment initiated day 6 after tumor cells, 30 mg/kg PO week on/off or 5 mg/kg drinking water, FIG. 5)	tumor volume [7]
OC[C@H]1O[C@@H](n2cnc3c(O)ncnc32)[C@H](O)[C@@H]1O [Inosine, inosine]	do not exhibit a stimulatory effect	do not exhibit a stimulatory effect	do not exhibit a stimulatory effect	do not exhibit a stimulatory effect				
O=c1[nH]cnc2c([C@@H]3N[C@H](CO)[C@@H](O)[C@H]3O)c[nH]c12 [NTR001, 7-[(2S,3S,4R,5R)-3,4-dihydroxy-5-(hydroxymethyl)-2-pyrrolidinyl]-1,5-dihyro-4-H-pyrrolo-[3,2-d]pyrimidin-4-one]	do not exhibit a stimulatory effect	do not exhibit a stimulatory effect	do not exhibit a stimulatory effect	do not exhibit a stimulatory effect	significant decrease	0-20%	significant decrease	decrease in tumor volume but was not statistically significant
